Reference: ChEMBL document CHEMBL1201862, “PubChem BioAssay data set” (2004)
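Where inhibition never reached the appropriate level, the endpoint shown equals the highest concentration tested. Otherwise, values were interpolated linearly from a five-concentration, 48-hour dose response in 96-well plates. Abbreviation: GI50, concentration required for 50% inhibition of growth.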 Active and inactive are the calls of the source. No stated cut-off is given here; in the data, active = GI50 up to about 1.1 µM and inactive = higher.

Legend:
Assay in all cases: growth of human tumour cells (NCI), 48 h
SNB-75 = tested on: SNB-75
UO-31 = tested on: UO-31
UACC-257 = tested on: UACC-257
SF-295 = tested on: SF-295
HT-29 = tested on: HT-29
SK-MEL-2 = tested on: SK-MEL-2
HCT-116 = tested on: HCT-116
Malme-3M = tested on: Malme-3M
HOP-92 = tested on: HOP-92
SF-539 = tested on: SF-539
SW-620 = tested on: SW-620
SK-MEL-28 = tested on: SK-MEL-28
LOX IMVI = tested on: LOX IMVI
NCI/ADR-RES = tested on: NCI/ADR-RES
HOP-62 = tested on: HOP-62
TK-10 = tested on: TK-10
HCT-15 = tested on: HCT-15
DU-145 = tested on: DU-145
NCI-H226 = tested on: NCI-H226
NCI-H522 = tested on: NCI-H522

Structure (SMILES)	GI50 (SNB-75)	GI50 (UO-31)	GI50 (UACC-257)	GI50 (SF-295)	GI50 (HT-29)	GI50 (SK-MEL-2)	GI50 (HCT-116)	GI50 (Malme-3M)	GI50 (HOP-92)	GI50 (SF-539)	GI50 (SW-620)	GI50 (SK-MEL-28)	GI50 (LOX IMVI)	GI50 (NCI/ADR-RES)	GI50 (HOP-62)	GI50 (TK-10)	GI50 (HCT-15) [µM]	GI50 (DU-145)	GI50 (NCI-H226)	GI50 (NCI-H522)
CC(=O)OCC1OC(n2nc(Cc3ccccc3)c(=S)[nH]c2=S)C(OC(C)=O)C(OC(C)=O)C1OC(C)=O (stereo not drawn)	20.6 µM (inactive)	4.9 µM (inactive)	18.7 µM (inactive)	43.2 µM (inactive)	41.8 µM (inactive)	17.7 µM (inactive)	21.3 µM (inactive)	31.6 µM (inactive)	20.4 µM (inactive)	24.9 µM (inactive)	30 µM (inactive)	42.8 µM (inactive)	20.6 µM (inactive)	> 100 µM (inactive)	22 µM (inactive)	57.8 µM (inactive)	19.4	25.4 µM (inactive)	54.1 µM (inactive)	21.4 µM (inactive)
CC1(C)O[C@@H]2[C@@H]3OC(=O)C[C@@H]3[C@@H](COCc3ccccc3)[C@@H]2O1	> 100 µM (inactive)	> 100 µM (inactive)	> 100 µM (inactive)	> 100 µM (inactive)	> 100 µM (inactive)	> 100 µM (inactive)	> 100 µM (inactive)	> 100 µM (inactive)	> 100 µM (inactive)	> 100 µM (inactive)	> 100 µM (inactive)	> 100 µM (inactive)	> 100 µM (inactive)	> 100 µM (inactive)	> 100 µM (inactive)	> 100 µM (inactive)	> 100	> 100 µM (inactive)	> 100 µM (inactive)	> 100 µM (inactive)
C/C(=N\NC(=O)CC#N)C(CN1CCCCC1)C(c1ccccc1)c1c(O)c2ccccc2oc1=O (stereo not drawn)	67.5 µM (inactive)	33.9 µM (inactive)	37.2 µM (inactive)		46.8 µM (inactive)	35.7 µM (inactive)	62.2 µM (inactive)	41 µM (inactive)	18.5 µM (inactive)	52.6 µM (inactive)	91.4 µM (inactive)	> 100 µM (inactive)	17.4 µM (inactive)	48.9 µM (inactive)		91.8 µM (inactive)	45.5	> 100 µM (inactive)	52.1 µM (inactive)	58.2 µM (inactive)
COc1cccc2cc(C(=O)Nc3ccccn3)c(=N)oc12	59.2 µM (inactive)	> 100 µM (inactive)	> 100 µM (inactive)	> 100 µM (inactive)	> 100 µM (inactive)	33.6 µM (inactive)	83.2 µM (inactive)	50.9 µM (inactive)	> 100 µM (inactive)	> 100 µM (inactive)	> 100 µM (inactive)	> 100 µM (inactive)	> 100 µM (inactive)	> 100 µM (inactive)	82.8 µM (inactive)	> 100 µM (inactive)	> 100	54.8 µM (inactive)	> 100 µM (inactive)	46.5 µM (inactive)
Cc1ccc(/N=N\c2c(O)ccc3cc(S(=O)(=O)O)ccc23)cc1	> 100 µM (inactive)	> 100 µM (inactive)	> 100 µM (inactive)	> 100 µM (inactive)	> 100 µM (inactive)	> 100 µM (inactive)	> 100 µM (inactive)	> 100 µM (inactive)	> 100 µM (inactive)	> 100 µM (inactive)	> 100 µM (inactive)	> 100 µM (inactive)	> 100 µM (inactive)	> 100 µM (inactive)	> 100 µM (inactive)	> 100 µM (inactive)	> 100	> 100 µM (inactive)	> 100 µM (inactive)	> 100 µM (inactive)
CSCCCNC(=O)c1csc(-c2csc(CCNC(=O)CNC(=O)CNC(=O)OC(C)(C)C)n2)n1	37.2 µM (inactive)	> 100 µM (inactive)	> 100 µM (inactive)	> 100 µM (inactive)	> 100 µM (inactive)	> 100 µM (inactive)	> 100 µM (inactive)	> 100 µM (inactive)	> 100 µM (inactive)	> 100 µM (inactive)	> 100 µM (inactive)	> 100 µM (inactive)	> 100 µM (inactive)	> 100 µM (inactive)	> 100 µM (inactive)	> 100 µM (inactive)	> 100	> 100 µM (inactive)	> 100 µM (inactive)	> 100 µM (inactive)
O=c1c2cc(Cl)ccc2n2nnc3ccc(NCCNCCO)c1c32	0.0753 µM (active)	1.17 µM (inactive)	1.78 µM (inactive)	0.689 µM (active)	0.575 µM (active)	2.09 µM (inactive)	0.419 µM (active)	2.09 µM (inactive)	2.02 µM (inactive)	1.8 µM (inactive)	0.466 µM (active)	1.79 µM (inactive)	0.583 µM (active)	0.665 µM (active)	1.41 µM (inactive)	2.4 µM (inactive)	0.718	3.44 µM (inactive)	2.11 µM (inactive)	1.33 µM (inactive)
